# Experimental data: PubChem BioAssay AID1963874 (Molecular Pharmacology Branch, DTP, NCI, 2024)
# Tested on: 253994-281-T-J1-PDC KRAS-mutant spheroids with HUVEC/MSC, viability
# Assay: Anticancer human tumor 253994-281-T-J1-PDC patient-derived colorectal carcinoma cell line growth inhibition [KRAS2]
# Settings: for IC50: curve of first compound; for viability, T/C: stronger effect = lower value
# How it was run: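 KRAS-mutant tumor cells were grown as spheroids with HUVEC endothelial cells and human MSCs as stroma. Targeted agents were tested alone and with KRAS pathway inhibitors. Doses started at or near clinical Cmax, or 10 microM, descending half-log.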
# [1] = second compound 0.1 µM, first compound 0.000316 µM
# [2] = second compound 0.1 µM, first compound 0.001 µM
# [3] = second compound 0.1 µM, first compound 0.00316 µM
# [4] = second compound 0.1 µM, first compound 0.01 µM
# [5] = second compound 0.1 µM, first compound 0.0316 µM
# [6] = second compound 0.316 µM, first compound 0.000316 µM
# [7] = second compound 0.316 µM, first compound 0.001 µM
# [8] = second compound 0.316 µM, first compound 0.00316 µM
# [9] = second compound 0.316 µM, first compound 0.01 µM
# [10] = second compound 0.316 µM, first compound 0.0316 µM
# [11] = second compound 1 µM, first compound 0.000316 µM
# [12] = second compound 1 µM, first compound 0.001 µM
# [13] = second compound 1 µM, first compound 0.00316 µM
# [14] = second compound 1 µM, first compound 0.01 µM
# [15] = second compound 1 µM, first compound 0.0316 µM
# [16] = second compound 3.16 µM, first compound 0.000316 µM
# [17] = second compound 3.16 µM, first compound 0.001 µM
# [18] = second compound 3.16 µM, first compound 0.00316 µM
# [19] = second compound 3.16 µM, first compound 0.01 µM
# [20] = second compound 3.16 µM, first compound 0.0316 µM
# [21] = second compound 10 µM, first compound 0.000316 µM
# [22] = second compound 10 µM, first compound 0.001 µM
# [23] = second compound 10 µM, first compound 0.00316 µM
# [24] = second compound 10 µM, first compound 0.01 µM
# [25] = second compound 10 µM, first compound 0.0316 µM
# 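Further: spheroids exposed to agents for seven days before readout.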
# 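Wherever viability, T/C is given: percent of DMSO vehicle control viability.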
Structure (SMILES),IC50 (second compound 0.1 µM),IC50 (second compound 0.316 µM),IC50 (second compound 1 µM),IC50 (second compound 3.16 µM),IC50 (second compound 10 µM),"viability, T/C [1]","viability, T/C [2]","viability, T/C [3]","viability, T/C [4]","viability, T/C [5]","viability, T/C [6]","viability, T/C [7]","viability, T/C [8]","viability, T/C [9]","viability, T/C [10]","viability, T/C [11]","viability, T/C [12]","viability, T/C [13]","viability, T/C [14]","viability, T/C [15]",other results
CC(=O)Nc1cccc(-n2c(=O)n(C3CC3)c(=O)c3c(Nc4ccc(I)cc4F)n(C)c(=O)c(C)c32)c1 + CNCc1ccccc1-c1csc(C(C)Nc2nc(C)nc3cc(OC)c(OC)cc23)c1,0.649 nM,0.415 nM,0.205 nM,< 0.1 nM,< 0.1 nM,81.5%,31.4%,19%,10.6%,5.26%,57.2%,28.7%,17.2%,10.9%,4.68%,39.9%,16.3%,10.7%,7.62%,3.86%,"viability, T/C (second compound 0.1 µM, first compound 0.0001 µM): 81.3%; viability, T/C (second compound 0.316 µM, first compound 0.0001 µM): 80.2%; viability, T/C (second compound 1 µM, first compound 0.0001 µM): 67.4%; viability, T/C (second compound 3.16 µM, first compound 0.0001 µM): 5.81%; viability, T/C [16]: 1.42%; viability, T/C [17]: 0.92%; viability, T/C [18]: 0.18%; viability, T/C [19]: 0.16%; viability, T/C [20]: 0.34%; viability, T/C (second compound 10 µM, first compound 0.0001 µM): 0.16%; viability, T/C [21]: 0.15%; viability, T/C [22]: 0.14%; viability, T/C [23]: 0.18%; viability, T/C [24]: 0.12%; viability, T/C [25]: 0.21%"
CC(C)n1nc(-c2ccc3oc(N)nc3c2)c2c(N)ncnc21 + CNCc1ccccc1-c1csc(C(C)Nc2nc(C)nc3cc(OC)c(OC)cc23)c1,> 100 nM,> 100 nM,> 100 nM,0.316 nM,< 0.316 nM,96.7%,86.8%,74.5%,75.8%,79.7%,91%,87.5%,82.7%,73.2%,78.1%,93.3%,78%,79.3%,76.8%,73.3%,"viability, T/C (second compound 0.1 µM, first compound 0.1 µM): 50.8%; viability, T/C (second compound 0.316 µM, first compound 0.1 µM): 57%; viability, T/C (second compound 1 µM, first compound 0.1 µM): 51%; viability, T/C [16]: 37.9%; viability, T/C [17]: 45.2%; viability, T/C [18]: 56.9%; viability, T/C [19]: 9.64%; viability, T/C [20]: 42.3%; viability, T/C (second compound 3.16 µM, first compound 0.1 µM): 28.2%; viability, T/C [21]: 0.12%; viability, T/C [22]: 0.13%; viability, T/C [23]: 0.13%; viability, T/C [24]: 0.11%; viability, T/C [25]: 0.13%; viability, T/C (second compound 10 µM, first compound 0.1 µM): 0.18%"
